Measurements from patent US20220088016A1, “CANCER TREATMENT USING MULTI-TARGETED KINASE INHIBITOR IN COMBINATION OF PROTEIN KINASE BIOMARKERS” (ZHEJIANG CROWNMAB BIOTECH CO. LTD., priority 2019, published 2022).

Experiments:
Assay in all cases: Kinase profiling
Type in all cases: binding
Settings in all cases: read-out: % Ctrl @ 1000 nM
[1] = molecular target: ABL1 (F317I)-phosphorylated (Homo sapiens, UniProt P00519, F317I)
[2] = molecular target: ABL1 (H396P)-phosphorylated (Homo sapiens, UniProt P00519, H396P)
ACVR2B = ACVR2B (Homo sapiens, UniProt Q13705)
AKT1 = AKT1 (Homo sapiens, UniProt P31749)
AKT2 = AKT2 (Homo sapiens, UniProt P31751)
AURKB = AURKB (Homo sapiens, UniProt Q96GD4)
BMPR2 = BMPR2 (Homo sapiens, UniProt Q13873)
CDK5 = CDK5 (Homo sapiens, UniProt Q00535)
CDK7 = CDK7 (Homo sapiens, UniProt P50613)
CLK2 = CLK2 (Homo sapiens, UniProt P49760)
CSNK2A2 = CSNK2A2 (Homo sapiens, UniProt P19784)
DRAK2 = DRAK2 (Homo sapiens, UniProt O94768)
EPHB4 = EPHB4 (Homo sapiens, UniProt P54760)
ERBB4 = ERBB4 (Homo sapiens, UniProt Q15303)
FLT1 = FLT1 (Homo sapiens, UniProt P17948)
IRAK1 = IRAK1 (Homo sapiens, UniProt P51617)
[3] = molecular target: JAK1 (JH2domain-pseudokinase) (Homo sapiens, UniProt P23458)
LCK = LCK (Homo sapiens, UniProt P06239)
MARK1 = MARK1 (Homo sapiens, UniProt Q9P0L2)
MEK3 = molecular target: T1, MEK3 (Homo sapiens, UniProt P46734)
T1 construct: T7 phage fusion (stated for most kinases of the panel only); made in house; host or cells: T7 phage in E. coli (BL21-derived) or HEK-293 cells

MKK7 = molecular target: T2, MKK7 (Homo sapiens, UniProt O14733)
T2 construct: T7 phage fusion (stated for most kinases of the panel only); made in house; host or cells: T7 phage in E. coli (BL21-derived) or HEK-293 cells

MLK2 = molecular target: T3, MLK2 (Homo sapiens, UniProt Q02779)
T3 construct: T7 phage fusion (stated for most kinases of the panel only); made in house; host or cells: T7 phage in E. coli (BL21-derived) or HEK-293 cells

MST2 = molecular target: T4, MST2 (Homo sapiens, UniProt Q13188)
T4 construct: T7 phage fusion (stated for most kinases of the panel only); made in house; host or cells: T7 phage in E. coli (BL21-derived) or HEK-293 cells

MTOR = molecular target: T5, MTOR (Homo sapiens, UniProt P42345)
T5 construct: T7 phage fusion (said for most assays); made in house

PIK3CA (C420R) = PIK3CA (C420R) (Homo sapiens, UniProt P42336, C420R)
PIK3CA (H1047Y) = PIK3CA (H1047Y) (Homo sapiens, UniProt P42336, H1047Y)
PKN2 = PKN2 (Homo sapiens, UniProt Q16513)
PRKCE = PRKCE (Homo sapiens, UniProt Q02156)
PRP4 = PRP4 (Homo sapiens, UniProt Q13523)
RAF1 = RAF1 (Homo sapiens, UniProt P04049)
RET = RET (Homo sapiens, UniProt P07949)
RET (V804L) = RET (V804L) (Homo sapiens, UniProt P07949, V804L)
SLK = SLK (Homo sapiens, UniProt Q9H2G2)
SNRK = SNRK (Homo sapiens, UniProt Q9NRH2)
STK16 = STK16 (Homo sapiens, UniProt O75716)
TESK1 = TESK1 (Homo sapiens, UniProt Q15569)
TXK = TXK (Homo sapiens, UniProt P42681)
VPS34 = VPS34 (Homo sapiens, UniProt Q8NEB9)
WNK2 = WNK2 (Homo sapiens, UniProt Q9Y3S1)
Sequence of WNK2 (Q9Y3S1 whole entry): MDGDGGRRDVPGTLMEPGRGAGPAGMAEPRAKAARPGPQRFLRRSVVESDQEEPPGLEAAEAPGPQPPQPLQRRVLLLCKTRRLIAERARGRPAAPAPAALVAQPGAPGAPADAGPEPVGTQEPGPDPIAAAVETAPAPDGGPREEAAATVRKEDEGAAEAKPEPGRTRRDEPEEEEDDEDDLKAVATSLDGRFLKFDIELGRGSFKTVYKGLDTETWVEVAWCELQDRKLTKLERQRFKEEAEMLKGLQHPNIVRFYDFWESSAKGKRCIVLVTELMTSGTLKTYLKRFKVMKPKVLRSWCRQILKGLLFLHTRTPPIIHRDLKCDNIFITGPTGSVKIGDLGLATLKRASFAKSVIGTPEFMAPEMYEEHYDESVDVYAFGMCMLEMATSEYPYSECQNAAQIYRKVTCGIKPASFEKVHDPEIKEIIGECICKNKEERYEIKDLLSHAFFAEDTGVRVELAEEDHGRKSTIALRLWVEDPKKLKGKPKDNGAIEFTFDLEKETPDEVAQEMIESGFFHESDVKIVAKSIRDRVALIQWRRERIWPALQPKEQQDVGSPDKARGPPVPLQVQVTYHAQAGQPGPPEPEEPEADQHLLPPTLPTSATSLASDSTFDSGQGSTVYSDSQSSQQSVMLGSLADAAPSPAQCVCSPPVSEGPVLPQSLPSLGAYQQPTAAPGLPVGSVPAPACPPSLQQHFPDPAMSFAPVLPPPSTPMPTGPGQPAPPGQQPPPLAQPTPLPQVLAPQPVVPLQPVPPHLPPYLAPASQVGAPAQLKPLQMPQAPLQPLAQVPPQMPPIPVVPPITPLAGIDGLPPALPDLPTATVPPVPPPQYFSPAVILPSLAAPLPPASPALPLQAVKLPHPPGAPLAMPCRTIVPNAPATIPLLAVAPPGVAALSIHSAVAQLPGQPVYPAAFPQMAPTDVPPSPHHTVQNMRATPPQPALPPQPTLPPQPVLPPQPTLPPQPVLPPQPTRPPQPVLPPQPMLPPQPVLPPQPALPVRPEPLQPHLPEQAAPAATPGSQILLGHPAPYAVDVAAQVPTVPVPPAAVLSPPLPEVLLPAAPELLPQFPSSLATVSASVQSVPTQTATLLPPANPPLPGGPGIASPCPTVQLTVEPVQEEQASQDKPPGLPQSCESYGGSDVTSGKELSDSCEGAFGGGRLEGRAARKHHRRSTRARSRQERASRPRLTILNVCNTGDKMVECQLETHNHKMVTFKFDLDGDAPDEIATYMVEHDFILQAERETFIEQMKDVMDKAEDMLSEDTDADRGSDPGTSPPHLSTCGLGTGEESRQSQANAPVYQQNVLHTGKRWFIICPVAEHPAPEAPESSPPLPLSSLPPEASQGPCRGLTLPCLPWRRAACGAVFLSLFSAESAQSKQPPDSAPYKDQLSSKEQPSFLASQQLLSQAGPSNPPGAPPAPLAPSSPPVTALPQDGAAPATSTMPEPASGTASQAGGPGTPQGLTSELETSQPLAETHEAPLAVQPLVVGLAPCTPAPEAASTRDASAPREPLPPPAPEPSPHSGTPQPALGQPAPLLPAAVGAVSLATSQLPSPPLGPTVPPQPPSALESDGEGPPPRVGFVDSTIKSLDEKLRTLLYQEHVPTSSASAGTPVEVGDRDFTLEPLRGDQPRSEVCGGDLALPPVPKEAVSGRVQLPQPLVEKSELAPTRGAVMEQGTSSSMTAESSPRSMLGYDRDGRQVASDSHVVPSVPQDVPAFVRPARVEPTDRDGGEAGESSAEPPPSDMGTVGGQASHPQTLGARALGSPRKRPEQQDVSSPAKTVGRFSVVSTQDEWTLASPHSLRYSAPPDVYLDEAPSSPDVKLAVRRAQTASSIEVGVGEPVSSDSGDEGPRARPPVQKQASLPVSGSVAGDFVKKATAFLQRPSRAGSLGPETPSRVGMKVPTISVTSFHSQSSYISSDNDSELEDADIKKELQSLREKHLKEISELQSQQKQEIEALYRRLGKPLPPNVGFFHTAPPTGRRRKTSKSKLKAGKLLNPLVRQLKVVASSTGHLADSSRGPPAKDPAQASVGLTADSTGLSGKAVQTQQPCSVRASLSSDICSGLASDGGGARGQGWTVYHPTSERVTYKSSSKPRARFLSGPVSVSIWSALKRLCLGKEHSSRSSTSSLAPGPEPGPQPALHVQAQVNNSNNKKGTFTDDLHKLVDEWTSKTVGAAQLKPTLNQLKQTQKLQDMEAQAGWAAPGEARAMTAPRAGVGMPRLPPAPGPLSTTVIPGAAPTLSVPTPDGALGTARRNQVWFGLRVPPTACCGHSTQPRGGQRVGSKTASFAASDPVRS

Sequence of PRKCE (Q02156 whole entry): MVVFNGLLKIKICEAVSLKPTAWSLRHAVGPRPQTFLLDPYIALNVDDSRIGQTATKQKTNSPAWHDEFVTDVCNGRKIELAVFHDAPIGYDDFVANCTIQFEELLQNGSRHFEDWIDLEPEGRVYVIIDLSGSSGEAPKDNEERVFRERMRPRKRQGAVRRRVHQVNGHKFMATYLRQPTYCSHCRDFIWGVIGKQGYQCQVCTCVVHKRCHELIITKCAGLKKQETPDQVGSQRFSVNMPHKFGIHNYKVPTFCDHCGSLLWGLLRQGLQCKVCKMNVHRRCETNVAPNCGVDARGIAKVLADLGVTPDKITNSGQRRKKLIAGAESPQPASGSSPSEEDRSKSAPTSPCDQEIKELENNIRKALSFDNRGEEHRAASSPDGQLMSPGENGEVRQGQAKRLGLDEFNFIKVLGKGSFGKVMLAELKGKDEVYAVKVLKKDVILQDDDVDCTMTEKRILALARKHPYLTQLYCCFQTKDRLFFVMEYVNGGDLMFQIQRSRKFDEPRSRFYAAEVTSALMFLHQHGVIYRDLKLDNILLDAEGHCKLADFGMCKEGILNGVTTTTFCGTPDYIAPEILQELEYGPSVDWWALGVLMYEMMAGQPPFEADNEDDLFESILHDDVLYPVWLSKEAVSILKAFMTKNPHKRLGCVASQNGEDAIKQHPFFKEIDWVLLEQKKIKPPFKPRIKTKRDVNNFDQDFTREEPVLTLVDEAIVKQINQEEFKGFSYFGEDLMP
Sequence of CDK5 (Q00535 whole entry): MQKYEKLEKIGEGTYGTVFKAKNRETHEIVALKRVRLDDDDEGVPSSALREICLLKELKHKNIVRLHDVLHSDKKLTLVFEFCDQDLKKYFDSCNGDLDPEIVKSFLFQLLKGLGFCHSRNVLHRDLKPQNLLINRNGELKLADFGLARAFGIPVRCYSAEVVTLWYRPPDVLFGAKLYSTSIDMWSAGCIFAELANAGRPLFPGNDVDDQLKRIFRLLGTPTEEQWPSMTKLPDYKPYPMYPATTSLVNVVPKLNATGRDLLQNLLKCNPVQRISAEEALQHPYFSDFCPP
T1 sequence (P46734 whole entry, the tested form may be a part): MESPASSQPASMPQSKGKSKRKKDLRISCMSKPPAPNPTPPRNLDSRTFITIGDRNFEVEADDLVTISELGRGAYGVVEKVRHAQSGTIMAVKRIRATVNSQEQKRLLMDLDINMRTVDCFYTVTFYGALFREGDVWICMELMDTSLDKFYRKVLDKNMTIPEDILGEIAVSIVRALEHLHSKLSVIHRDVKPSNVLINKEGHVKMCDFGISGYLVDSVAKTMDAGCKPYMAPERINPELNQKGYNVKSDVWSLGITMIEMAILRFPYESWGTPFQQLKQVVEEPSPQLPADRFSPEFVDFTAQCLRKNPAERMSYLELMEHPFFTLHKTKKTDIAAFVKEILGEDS
T2 sequence (O14733 whole entry, the tested form may be a part): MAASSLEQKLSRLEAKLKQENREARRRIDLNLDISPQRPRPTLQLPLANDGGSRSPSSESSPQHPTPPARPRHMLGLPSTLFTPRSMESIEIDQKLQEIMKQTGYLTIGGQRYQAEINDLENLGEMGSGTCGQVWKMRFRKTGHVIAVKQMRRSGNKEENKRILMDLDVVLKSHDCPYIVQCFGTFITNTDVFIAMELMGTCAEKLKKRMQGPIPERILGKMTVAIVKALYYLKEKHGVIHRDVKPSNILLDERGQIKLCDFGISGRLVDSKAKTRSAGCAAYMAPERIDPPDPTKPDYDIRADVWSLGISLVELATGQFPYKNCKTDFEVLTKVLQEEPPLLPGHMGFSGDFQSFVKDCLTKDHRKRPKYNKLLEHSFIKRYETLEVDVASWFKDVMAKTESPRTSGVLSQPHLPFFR
Sequence of TESK1 (Q15569 whole entry): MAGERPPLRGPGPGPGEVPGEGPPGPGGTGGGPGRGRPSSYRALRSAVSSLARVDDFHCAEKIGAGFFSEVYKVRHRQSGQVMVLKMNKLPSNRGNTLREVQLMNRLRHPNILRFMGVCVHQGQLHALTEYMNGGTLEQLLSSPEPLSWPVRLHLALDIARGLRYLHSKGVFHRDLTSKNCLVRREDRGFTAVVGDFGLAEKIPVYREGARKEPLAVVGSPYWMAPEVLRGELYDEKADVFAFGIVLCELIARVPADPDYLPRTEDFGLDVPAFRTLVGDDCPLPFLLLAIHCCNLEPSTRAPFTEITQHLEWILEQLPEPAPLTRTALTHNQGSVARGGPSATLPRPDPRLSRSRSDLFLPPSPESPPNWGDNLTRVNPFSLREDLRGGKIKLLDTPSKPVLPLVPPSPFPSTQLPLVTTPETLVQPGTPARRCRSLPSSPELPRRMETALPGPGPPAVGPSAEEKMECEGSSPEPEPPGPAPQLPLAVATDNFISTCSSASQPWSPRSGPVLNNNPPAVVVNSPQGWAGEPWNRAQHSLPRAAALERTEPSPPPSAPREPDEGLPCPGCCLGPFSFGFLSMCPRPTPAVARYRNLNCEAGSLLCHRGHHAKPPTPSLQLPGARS
Sequence of AURKB (Q96GD4 whole entry): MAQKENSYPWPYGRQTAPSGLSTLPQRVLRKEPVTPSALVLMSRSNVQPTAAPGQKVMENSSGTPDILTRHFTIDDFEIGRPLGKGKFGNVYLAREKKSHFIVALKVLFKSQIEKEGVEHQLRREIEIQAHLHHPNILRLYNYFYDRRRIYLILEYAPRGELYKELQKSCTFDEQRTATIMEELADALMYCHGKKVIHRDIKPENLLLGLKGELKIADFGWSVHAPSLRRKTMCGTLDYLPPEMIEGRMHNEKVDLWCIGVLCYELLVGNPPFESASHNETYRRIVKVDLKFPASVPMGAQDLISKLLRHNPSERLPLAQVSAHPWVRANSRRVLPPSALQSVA

In the case of `Cc1cc(Oc2cc(NC(=O)C3CC3)ncn2)ccc1NC(=O)Nc1ccc(Cl)c(C(F)(F)F)c1` [CBT-102], the remaining activity at 1 µM [1] is reported as 95%, the remaining activity at 1 µM [2] is reported as 83% and the remaining activity at 1 µM (ACVR2B) is reported as 89%. It also gave a remaining activity at 1 µM (AKT1) of 100%, a remaining activity at 1 µM (AKT2) of 100% and a remaining activity at 1 µM (AURKB) of 49%. It also gave a remaining activity at 1 µM (BMPR2) of 82%, a remaining activity at 1 µM (CDK5) of 92% and a remaining activity at 1 µM (CDK7) of 25%. For the same compound, the remaining activity at 1 µM (CLK2) was 100%, the remaining activity at 1 µM (CSNK2A2) was 100% and the remaining activity at 1 µM (DRAK2) was 100%. For the same compound, the remaining activity at 1 µM (EPHB4) was 18%, the remaining activity at 1 µM (ERBB4) was 100% and the remaining activity at 1 µM (FLT1) was 0.8%. It also gave a remaining activity at 1 µM (IRAK1) of 75%, a remaining activity at 1 µM [3] of 100% and a remaining activity at 1 µM (LCK) of 15%. For the same compound, the remaining activity at 1 µM (MARK1) was 100%, the remaining activity at 1 µM (MEK3) was 90% and the remaining activity at 1 µM (MKK7) was 66%. For the same compound, the remaining activity at 1 µM (MLK2) was 99%, the remaining activity at 1 µM (MST2) was 92% and the remaining activity at 1 µM (MTOR) was 94%. It also gave a remaining activity at 1 µM (PIK3CA (C420R)) of 100%, a remaining activity at 1 µM (PIK3CA (H1047Y)) of 100% and a remaining activity at 1 µM (PKN2) of 100%. The remaining activity at 1 µM (PRKCE) was 99%, the remaining activity at 1 µM (PRP4) was 95% and the remaining activity at 1 µM (RAF1) was 3.4%. For the same compound, the remaining activity at 1 µM (RET) was 0%, the remaining activity at 1 µM (RET (V804L)) was 42% and the remaining activity at 1 µM (SLK) was 1.4%. For the same compound, the remaining activity at 1 µM (SNRK) was 100%, the remaining activity at 1 µM (STK16) was 100% and the remaining activity at 1 µM (TESK1) was 100%. The remaining activity at 1 µM (TXK) was 100%, the remaining activity at 1 µM (VPS34) was 80% and the remaining activity at 1 µM (WNK2) was 100%.
